Bridges are numbered along the chain shown (N, C = ends). [ ]: non-standard residue; d: D form. (Peg)3 = 12-amino-4,7,10-trioxadodecanoic acid subunits; PEG3 = NCCOCCOCCOCCC(=O)O; code 4 = not defined here; Dap = NC[C@H](N)C(=O)O

Two substances from US20240174717A1, “AFFINITY AGENTS” (Avitide LLC, priority 2021, published 2024) can be followed below.

Data set [1] deals with exosomes. Put plainly: Filter plate static binding experiment: affinity capture of exosomes by resins. The following applies: ligand conjugated to A50 beads, load 1E10 particles/mL in PBST, 60 min. How it is done: A filter plate binding experiment using Durapore Membrane.
Resins were prepared by conjugating ligands to A50 beads.

Data set [2] in a line: Stability of affinity resin towards sodium hydroxide (static binding before and after treatment). The data set is classed as physicochemical. To be noted: 0.1 M NaOH for 18 hours, then static binding experiment vs untreated resin. How it is done: Resin comprising SEQ ID No: 43 was incubated with 0.1 M NaOH for 18 hours, washed and a static binding experiment was conducted as described in example 5.

As to “Ac-NYWR5VWFPHAQG2VSTA-(Peg)3K-Amide (Ac-NYWRDVWFPHAQG[Dap]VSTA[(Peg)3]K-NH2; lactam 5-14) [SEQ ID No. 43]”, the “Ave Capture (%)” value worked out at 89% in data set [1] (ligand density 7.4 mg/mL) and 98% in data set [1] (ligand density 11.2 mg/mL). Moreover, the “stability of resin towards sodium hydroxide” value in data set [2] is listed as “stable towards 0.1 M NaOH”.

Consider “Ac-NYWR5VWFPHAQG4VSTA-(Peg)3K-Amide (Ac-NYWRDVWFPHAQG[code 4]VSTA[PEG3]K-NH2; lactam 5-14; not fully specified (some residues); printed as Ac-NYWR5VWFPHAQG4VSTA-(Peg)3K-Amide; reading uncertain) [SEQ ID No. 28]”, for which the “Ave Capture (%)” value in data set [1] (ligand density 7.7 mg/mL) was 38%; in data set [1] (ligand density 9.8 mg/mL), 97%.
